Columns and labels:
[1] = system: male dd-strain mice; test: Test for acute toxicity (minimum lethal dose, 7-day mortality); assay type: in vivo; conditions: mortality observed for 7 days; for Acute MLD ip: intraperitoneal
Method: Groups of 5 male dd-strain mice weighing 19 to 21 g were used. The present compounds were administered either orally (0.3 mg/g) or intraperitoneally (0.1 mg/g).
The MLD (minimum lethal dose) was determined by observing the mortality for 7 days after the administration.

[2] = system: Male Donryu-strain rats; test: Test for antiulcer activity (restraint and water immersion stress ulcer, lesion index of glandular stomach); assay type: in vivo; conditions: Rattus norvegicus, water immersion at 23±1° C. for 7 hours, read-out: Ulcer-inhibition Rate; for inhibition in vivo at 30 mg/kg: po: 30 mg/kg; for inhibition in vivo at 100 mg/kg: po: 100 mg/kg
Method: Test for antiulcer activity
Male Donryu-strain rats weighing 190 to 210 g were starved for 17 hours prior to the test.
Immediately, after an oral administration of the present compounds (30 mg/kg or 100 mg/kg), the rats were immobilized in the stress cage devised by Takagi et al. [Jap. J. Pharmacol., 18, 9 (1968)]. The cage was then immersed vertically in a water bath at 23±1° C. for 7 hours to the height of xiphoid process.
Each rat was then killed with carbon dioxide gas and its stomach was removed. The lengths of the lesions developed on the glandular stomach were summed to give a lesion index for each rat.
Four or five rats were used for each group. The test compounds were dissolved in saline or dissolved or suspended in saline with a suitable amount of polyethylene glycol-400 added or not added. The ulcer-inhibitionrate of each compound was calculated from the following formula by comparing the lesion index of the test group with that of the control group [administered with only the solvent (saline with polyethylene glycol-400 added or not added)]. [formula]

| Compound | Acute MLD ip [1] | Acute MLD po [1] | inhibition in vivo at 30 mg/kg [2] | inhibition in vivo at 100 mg/kg [2] |
| --- | --- | --- | --- | --- |
| CCN(CC)CCCNC1c2ccccc2OCc2ncccc21 (stereo not drawn) [Compound 7, 5-[3-(Diethylamino)propyl]amino-5,11-dihydro[1]benzoxepino[3,4-b]pyridine] | > 100 mg/kg | > 300 mg/kg | 55% |  |
| CC(C)N(CCNC1c2ccccc2OCc2ncccc21)C(C)C (stereo not drawn) [Compound 24, 5-[2-(Diisopropylamino)ethyl]amino-5,11-dihydro[1]benzoxepino[3,4-b]pyridine] | > 100 mg/kg | > 300 mg/kg | 88% |  |
| CN1CCN(CC(=O)NC2c3ccccc3OCc3ncccc32)CC1 (stereo not drawn) [Compound 29, 5,11-Dihydro-5-[(4-methyl-1-piperazinyl)acetyl]amino[1]benzoxepino[3,4-b]pyridine] | > 100 mg/kg | > 300 mg/kg |  | 64% |
| CN(C)CCNC1c2ccccc2OCc2ncccc21 (stereo not drawn) [Compound 5, 5-[2-(Dimethylamino)ethyl]amino-5,11-dihydro[1]benzoxepino[3,4-b]pyridine] | > 100 mg/kg | > 300 mg/kg | 78% |  |
| CN1CCN(C2c3ccccc3OCc3ncccc32)CC1 (stereo not drawn) [Compound 20, 5-[1-(4-Methyl)piperazinyl]-5,11-dihydro[1]benzoxepino[3,4-b]pyridine] | > 100 mg/kg | > 300 mg/kg | 67% |  |
| CCN(CC)CC(=O)NC1c2ccccc2OCc2ncccc21 (stereo not drawn) [Compound 28, 5-[(N,N--diethylamino)acetyl]amino-5,11-dihydro[1]benzoxepino[3,4-b]pyridine] | > 100 mg/kg | > 300 mg/kg |  | 98% |
| c1ccc2c(c1)OCc1ncccc1C2NCCN1CCOCC1 (stereo not drawn) [Compound 15, 5-[2-(Morpholino)ethyl]amino-5,11-dihydro[1]benzoxepino[3,4-b]pyridine] | > 100 mg/kg | > 300 mg/kg | 73% |  |
| c1ccc2c(c1)OCc1ncccc1C2NCCN1CCCC1 (stereo not drawn) [Compound 13, 5-[2-(1-Pyrrolidinyl)ethyl]amino-5,11-dihydro[1]benzoxepino[3,4-b]pyridine] | > 100 mg/kg | > 300 mg/kg | 72% |  |
| CCN(CC)CCNC1c2ccccc2OCc2ncccc21 (stereo not drawn) [Compound 1, 5-[2-(Diethylamino)ethyl]amino-5,11-dihydro[1]benzoxepino[3,4-b]pyridine] | > 100 mg/kg | > 300 mg/kg | 85% |  |
| CC(C)N(CC(=O)NC1c2ccccc2OCc2ncccc21)C(C)C (stereo not drawn) [Compound 27, 5,11-Dihydro-5-[(N,N--diisopropylamino)acetyl]amino[1]benzoxepino[3,4-b]pyridine] | > 100 mg/kg | > 300 mg/kg |  | 79% |
| CNC(=O)N(C)C1c2ccccc2OCc2ncccc21 (stereo not drawn) [Compound 31, 1-(5,11-Dihydro[1]benzoxepino[3,4-b]pyridin-5-yl)1,3-dimethylurea] | > 100 mg/kg | > 300 mg/kg |  | 93% |
| CCNC(=O)N(CC)C1c2ccccc2OCc2ncccc21 (stereo not drawn) [Compound 36, 1-(5,11-Dihydro[1]benzoxepino[3,4-b]pyridin-5-yl)1,3-diethylurea] | > 100 mg/kg | > 300 mg/kg |  | 81% |
